From patent US9802960B2 (MILLENNIUM PHARMACEUTICALS, INC., priority 2014, dated 2017)

Biological target: Human VPS34 (Homo sapiens (Human), UniProt Q8NEB9)
Experiment: Human VPS34 enzyme assay (Adapta TR-FRET)
Format: biochemical
Settings: compound concentration 1.11 μM

Chain of Human VPS34 (Q8NEB9 whole entry): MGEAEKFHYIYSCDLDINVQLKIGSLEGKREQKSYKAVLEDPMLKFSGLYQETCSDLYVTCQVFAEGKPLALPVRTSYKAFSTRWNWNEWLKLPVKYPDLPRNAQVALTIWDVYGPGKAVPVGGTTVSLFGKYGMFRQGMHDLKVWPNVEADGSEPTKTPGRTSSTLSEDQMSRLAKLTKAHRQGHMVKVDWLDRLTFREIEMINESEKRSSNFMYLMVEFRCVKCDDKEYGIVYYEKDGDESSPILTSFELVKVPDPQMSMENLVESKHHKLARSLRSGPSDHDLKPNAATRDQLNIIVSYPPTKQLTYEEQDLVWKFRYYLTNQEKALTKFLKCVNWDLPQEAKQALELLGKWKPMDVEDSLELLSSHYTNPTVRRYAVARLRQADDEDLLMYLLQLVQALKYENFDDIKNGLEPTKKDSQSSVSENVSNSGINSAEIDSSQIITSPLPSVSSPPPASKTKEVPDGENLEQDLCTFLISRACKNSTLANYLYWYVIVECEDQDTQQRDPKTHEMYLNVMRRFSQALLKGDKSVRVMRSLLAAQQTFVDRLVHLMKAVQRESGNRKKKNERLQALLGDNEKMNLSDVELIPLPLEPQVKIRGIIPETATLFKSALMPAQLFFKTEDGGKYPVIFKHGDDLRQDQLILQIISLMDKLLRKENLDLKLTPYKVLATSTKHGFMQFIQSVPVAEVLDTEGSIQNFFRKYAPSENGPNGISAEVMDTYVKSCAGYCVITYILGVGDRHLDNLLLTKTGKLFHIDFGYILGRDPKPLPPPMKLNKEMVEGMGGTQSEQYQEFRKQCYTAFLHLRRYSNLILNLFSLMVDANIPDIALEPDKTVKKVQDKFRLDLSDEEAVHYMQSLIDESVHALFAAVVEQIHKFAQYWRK

Structure (SMILES) | Percent Inhibition [%]
Cc1nc(Nc2cc(-c3cnc(Cl)c(NS(=O)(=O)c4ccc(F)cc4F)c3C)ccn2)ccc1C#N [Compound I-238, N-{6-chloro-2′-[(5-cyano-6-methylpyridin-2-yl)amino]-4-methyl-3,4′-bipyridin-5-yl}-2,4-difluorobenzenesulfonamide] | 93

Same assay, conditions: compound concentration 1.11 μM; read-out: Percent Inhibition

Structure (SMILES) | inhibition at 1.11 µM [%]
Cc1nccc(Nc2cc(-c3cnc(C)c(C(=S)N4CCC4)c3)ccn2)n1 [Compound I-223, Azetidin-1-yl{6-methyl-2′-[(2-methylpyrimidin-4-yl)amino]-3,4′-bipyridin-5-yl}methanethione] | 95
COc1ncc(-c2ccnc(Nc3ccnc(C)n3)c2)cc1S(=O)(=O)NC1CCC1 [Compound I-224, N-cyclobutyl-6-methoxy-2′-[(2-methylpyrimidin-4-yl)amino]-3,4′-bipyridine-5-sulfonamide] | 99
COc1nccc(Nc2cc(-c3cnc(Cl)c(NS(=O)(=O)c4ccc(F)cc4F)c3C)ccn2)n1 [Compound I-225, N-{6-chloro-2′-[(2-methoxypyrimidin-4-yl)amino]-4-methyl-3,4′-bipyridin-5-yl}-2,4-difluorobenzene sulfonamide] | > 99
Cc1nccc(Nc2cc(-c3cnc(Cl)c(N)c3C)ccn2)n1 [Compound I-226, 6-chloro-4-methyl-N-2′-(2-methylpyrimidin-4-yl)-3,4′-bipyridine-2′,5-diamine] | 94
CC(=O)Nc1cc(-c2cnc(Cl)c(NS(=O)(=O)c3cc(F)ccc3F)c2C)ccn1 [Compound I-227, N-(6-chloro-5-{[(2,5-difluorophenyl)sulfonyl]amino}-4-methyl-3,4′-bipyridin-2′-yl)acetamide] | > 99
Cc1ncc(-c2ccnc(Nc3ccc(C#N)cn3)c2)cc1NS(=O)(=O)c1ccc(F)cc1F [Compound I-228, N-{2′-[(5-cyanopyridin-2-yl)amino]-6-methyl-3,4′-bipyridin-5-yl}-2,4-difluorobenzene sulfonamide] | > 99
Cc1nc(Nc2cc(-c3cnc(C)c(NS(=O)(=O)N(C)C)c3)ccn2)ccc1C#N [Compound I-229, N-{2′-[(5-cyano-6-methylpyridin-2-yl)amino]-6-methyl-3,4′-bipyridin-5-yl}-N,N-dimethylsulfuric diamide] | > 99
COc1nccc(Nc2cc(-c3cnc(N)c(C(=O)N(C)C45CC(C4)C5)c3)ccn2)n1 [Compound I-230, 6-amino-N-(bicyclo[1.1.1]pent-1-yl)-2′-((2-methoxypyrimidin-4-yl)amino)-N-methyl-[3,4′-bipyridine]-5-carboxamide] | 97
Nc1cncc(-c2ccnc(N)c2)c1 [Compound I-231, 3,4′-bipyridine-2′,5-diamine] | 26
Cc1nccc(Nc2cc(-c3cnc(Cl)c(C(=O)N4CCC4)c3)ccn2)n1 [Compound I-232, azetidin-1-yl{6-chloro-2′-[(2-methylpyrimidin-4-yl)amino]-3,4′-bipyridin-5-yl}methanone] | 81
Cc1ncc(-c2ccnc(Nc3nc4ccccc4o3)c2)cc1NS(=O)(=O)c1ccc(F)cc1F [Compound I-233, N-[2'-(1,3-benzoxazol-2-ylamino)-6-methyl-3,4′-bipyridin-5-yl]-2,4-difluorobenzene sulfonamide] | 96
Cc1nccc(Nc2cc(-c3cncc(C(=O)N(C)C45CC(C4)C5)c3)ccn2)n1 [Compound I-234, N-(bicyclo[1.1.1]pent-1-yl)-N-methyl-2′-[(2-methylpyrimidin-4-yl)amino]-3,4′-bipyridine-5-carboxamide] | 90
Cc1ccc2ccc(Nc3cc(-c4cnc(C)c(NS(=O)(=O)c5ccc(F)cc5F)c4)ccn3)nc2n1 [Compound I-235, 2,4-difluoro-N-{6-methyl-2′-[(7-methyl-1,8-naphthyridin-2-yl)amino]-3,4′-bipyridin-5-yl}benzenesulfonamide] | 92
CC(=O)Nc1cc(-c2cnc(Cl)c(NS(=O)(=O)N(C)C)c2C)ccn1 [Compound I-236, N-{6-chloro-5-[(dimethylsulfamoyl)amino]-4-methyl-3,4′-bipyridin-2′-yl}acetamide] | 98
Cc1ncc(-c2ccnc(Nc3ccnc(C(F)(F)F)n3)c2)cc1NS(=O)(=O)c1ccc(F)cc1F [Compound I-237, 2,4-difluoro-N-(6-methyl-2′-{[2-(trifluoromethyl)pyrimidin-4-yl]amino}-3,4′-bipyridin-5-yl)benzenesulfonamide] | 91
Cc1ncc(-c2ccnc(Nc3ccncn3)c2)cc1NS(=O)(=O)c1ccc(F)cc1F [Compound I-239] | > 99
CC(=O)Nc1cc(-c2cnc(Cl)c(NS(=O)(=O)c3ccccc3Cl)c2C)ccn1 [Compound I-240, N-(6-chloro-5-{[(2-chlorophenyl)sulfonyl]amino}-4-methyl-3,4′-bipyridin-2′-yl)acetamide] | > 99
COC(=O)Nc1cc(-c2cnc(C)c(NS(=O)(=O)N(C)C)c2)ccn1 [Compound I-241, methyl {5-[(dimethylsulfamoyl)amino]-6-methyl-3,4′-bipyridin-2′-yl}carbamate] | 96
Cc1nccc(Nc2cc(-c3cnc(Cl)c(S(=O)(=O)NC45CC(C4)C5)c3)ccn2)n1 [Compound I-242, N-(bicyclo[1.1.1]pent-1-yl)-6-chloro-2′-[(2-methylpyrimidin-4-yl)amino]-3,4′-bipyridine-5-sulfonamide] | 88
CC(=O)Nc1cc(-c2cnc(Cl)c(NS(=O)(=O)c3ccc(Cl)cc3Cl)c2C)ccn1 [Compound I-243, N-(6-chloro-5-{[(2,4-dichlorophenyl)sulfonyl]amino}-4-methyl-3,4′-bipyridin-2′-yl)acetamide] | 85
Cc1ncc(-c2ccnc(NC(=O)C3CC3(F)F)c2)cc1NS(=O)(=O)N(C)C (stereo not drawn) [Compound I-244, N-{5-[(dimethylsulfamoyl)amino]-6-methyl-3,4′-bipyridin-2′-yl}-2,2-difluorocyclopropanecarboxamide] | 82
COc1nccc(Nc2cc(-c3cncc(C(=O)N(C)C45CC(C4)C5)c3)ccn2)n1 [Compound I-245, N-(bicyclo[1.1.1]pent-1-yl)-2′-[(2-methoxypyrimidin-4-yl)amino]-N-methyl-3,4′-bipyridine-5-carboxamide] | > 99
Cc1ncc(-c2ccnc(Nc3ccnc(C4CC4)n3)c2)cc1C(=O)N1CCC1 [Compound I-246, azetidin-1-yl{2′-[(2-cyclopropylpyrimidin-4-yl)amino]-6-methyl-3,4′-bipyridin-5-yl}methanone] | 91
CC(=O)Nc1cc(-c2cnc(C)c(NS(=O)(=O)c3ccc(F)cc3F)c2C)ccn1 [Compound I-247, N-(5-{[(2,4-difluorophenyl)sulfonyl]amino}-4,6-dimethyl-3,4′-bipyridin-2′-yl)acetamide] | > 99
COc1ncc(-c2ccnc(NC(C)=O)c2)c(C)c1NS(=O)(=O)c1ccc(F)cc1F [Compound I-248, N-(5-{[(2,4-difluorophenyl)sulfonyl]amino}-6-methoxy-4-methyl-3,4′-bipyridin-2′-yl)acetamide] | > 99
Cc1nccc(Nc2cc(-c3cnc(C)c(NC(=O)c4ccc(F)cc4F)c3)ccn2)n1 [Compound I-249, 2,4-difluoro-N-{6-methyl-2′-[(2-methylpyrimidin-4-yl)amino]-3,4′-bipyridin-5-yl}benzamide] | 85
